# Key:
# [1] = Human who has acne treated with an Oxazolidinone ointment; assay type: in vivo; details: person, ointment 30 mg/ml twice daily on skin
# [2] = Human who has an ear infection (otitis media) treated with Oxazolidinone solution; assay type: in vivo; details: child, ten drops of 10 mg/ml solution into the ear twice daily, before 10 days
# Description: Ten drops of a solution containing 10 mg/ml of (S)-N-[[3-[3-fluoro-4-(4-morpholinyl)phenyl]-2-oxo-5-oxazolidinyl]methyl]acetamide is dropped into the ear twice daily for ten days with an eye dropper and is immediately followed by closing the outer ear canal with cotton.
# [3] = Treatment of diabetic foot with cream or ointment; assay type: in vivo, human; details: cream or ointment 10-30 mg/ml three times daily for 10-14 days
# Description: A 70 kilo […] with a history of diabetes and infected foot ulcerations, also known as diabetic foot, is treated with a cream or ointment preparation of 10-30 mg/ml (S)-N-[[3-[3-fluoro-4-(4-morpholinyl)phenyl]-2-oxo-5-oxazolidinyl]methyl]acetamide. The cream or ointment is liberally spread over the exposed surface of the ulcerations and adjacent whole skin three times daily for 10-14 days.
# [4] = tested on: Staphylococcal epidermidis; assay: Human treated with Oxazolidinone cream or ointment prior to surgery; assay type: in vivo; details: cream or ointment 10-30 mg/ml, evening prior to and morning of surgery
# Description: (§1) A 75 kilo […] is being prepared for surgery; the types of surgeries include open-heart surgery, joint replacement, back surgery, or any type of invasive surgery. A cream or ointment preparation of 10-30 mg/ml (S)-N-[[3-[3-fluoro-4-(4-morpholinyl)phenyl]-2-oxo-5-oxazolidinyl]methyl]acetamide is liberally spread by a nurse wearing gloves upon the intended site of the incision and an area of 8 inches around the margins of the intended incision site the evening prior to surgery and the first thing in the morning of the surgery. The area of application is kept free of clothing until the cream or ointment is absorbed.
# [5] = tested on: Staphylococcal aureus; assay: as above; assay type: in vivo; details: cream or ointment 10-30 mg/ml, evening prior to and morning of surgery
# Description: as §1
Structure (SMILES),reddened and swollen pustules after administration [1],fever and ear pain [2],tissue destruction and repair in the ulcerated area [3],skin commensal pathogen Staphylococcal epidermidis throughout the full thickness of the skin at the incision site [4],skin commensal pathogen Staphylococcal aureus throughout the full thickness of the skin at the incision site [5]
"CC(=O)NC[C@H]1CN(c2ccc(N3CCN(C(=O)CO)CC3)c(F)c2)C(=O)O1 [Example 1, (S)-N-[[3-[3-Fluoro-4-[4-(hydroxyacetyl)-1-piperazinyl]-phenyl]-2-oxo-5-oxazolidinyl]methyl]acetamide]",greatly reduced,,,,
"CC(=O)NC[C@H]1CN(c2ccc(N3CCOCC3)c(F)c2)C(=O)O1 [Example 2, (S)-N-[[3-[3-Fluoro-4-(4-morpholinyl)phenyl]-2-oxo-5-oxazolidinyl]methyl]acetamide]",,the fever is down and the pain is gone,tissue destruction in the ulcerated area has visibly ceased and tissue repair has begun,killed or are prevented from growing,killed or are prevented from growing

# Source: patent US20030096850A1, “Treating infections by administration of oxazolidinones” (priority 2001, published 2003)
